This note sets out measurements from US11078228B2, “Ectonucleotidase inhibitors and methods of use thereof” (Calithera Biosciences, Inc., priority 2018, dated 2021).

SMILES strings stand for the structures.

For this assay, the target named is recombinant CD73 (Homo sapiens (Human), UniProt P21589). The experiment in a line: Assay 1: Inhibition of the CD73 enzyme in vitro (0.5 nM CD73, 30 min room temperature, Malachite Green). The following applies: 0.5 nM CD73, 30 minutes at room temperature. The class given is biochemical. The method, then: For measurements of soluble CD73 enzyme activity, recombinant CD73 was obtained from R&D Systems, Cat. No. 5795-EN-010. […] Reactions were allowed to proceed for 30 minutes at room temperature before the addition of 100 μL Malachite Green (Cell Signaling Technology, Cat. No. 12776). After 5 minutes at room temperature, absorbance at 630 nm was determined on a microplate spectrophotometer. The concentration of inorganic phosphate was determined using a phosphate standard curve.
Sequence of recombinant CD73 (P21589 27-547): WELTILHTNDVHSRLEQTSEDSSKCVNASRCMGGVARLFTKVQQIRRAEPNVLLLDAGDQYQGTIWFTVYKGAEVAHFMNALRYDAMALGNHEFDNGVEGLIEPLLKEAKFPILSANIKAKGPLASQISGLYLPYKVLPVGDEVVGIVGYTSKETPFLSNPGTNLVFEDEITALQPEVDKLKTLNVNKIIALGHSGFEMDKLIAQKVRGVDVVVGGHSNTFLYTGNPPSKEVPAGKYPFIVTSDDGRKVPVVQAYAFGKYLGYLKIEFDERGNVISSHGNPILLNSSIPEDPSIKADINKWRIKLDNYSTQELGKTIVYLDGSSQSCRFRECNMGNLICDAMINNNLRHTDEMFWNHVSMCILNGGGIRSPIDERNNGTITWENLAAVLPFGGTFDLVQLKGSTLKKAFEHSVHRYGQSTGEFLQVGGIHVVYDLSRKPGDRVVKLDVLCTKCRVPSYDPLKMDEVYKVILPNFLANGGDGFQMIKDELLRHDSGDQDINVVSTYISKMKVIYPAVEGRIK
For orientation: IC50 means the concentration needed to halve the response being measured. With `C#C[C@@]1(O)[C@@H](COC(Cc2ccccc2)(C(=O)O)C(=O)O)O[C@@H](n2cnc3c(NCCN(CC)CC)nc(Cl)nc32)[C@@H]1O` [Example 61, 2-benzyl-2-(((2R,3S,4R,5R)-5-(2-chloro-6-((2-(diethylamino)ethyl)-amino)-9H-purin-9-yl)-3-ethynyl-3,4-dihydroxytetrahydrofuran-2-yl)methoxy)-malonic acid], the 50% inhibitory concentration (IC50) is 1.5 nM.
On to `C#C[C@@]1(O)[C@@H](COC(C(N)=O)C(=O)O)O[C@@H](n2cnc3c(NC4CCCC4)nc(Cl)nc32)[C@@H]1O` (stereo partly drawn) [Example 115, 3-amino-2-(((2R,3S,4R,5R)-5-(2-chloro-6-(cyclopentylamino)-9H-purin-9-yl)-3-ethynyl-3,4-dihydroxytetrahydrofuran-2-yl)methoxy)-3-oxopropanoic acid], for which the IC50 was found to be 135 nM.
As to `C#C[C@@]1(O)[C@@H](CO[C@@](Cc2ccccc2)(C(=O)O)c2cscn2)O[C@@H](n2cnc3c(N)nc(Cl)nc32)[C@@H]1O` (single isomer, unassigned) [Example 181], the IC50 amounted to 21 nM.
As for `C[C@@]1(O)[C@@H](COP(=O)(O)CP(=O)(O)O)O[C@@H](n2cnc3c(NCc4ccccc4)nc(Cl)nc32)[C@@H]1O` [Example 205, (((((2R,3S,4R,5R)-5-(6-(benzylamino)-2-chloro-9H-purin-9-yl)-3,4-dihydroxy-3-methyltetrahydrofuran-2-yl)methoxy)(hydroxy)phosphoryl)methyl)phosphonic acid], the IC50 is 12 nM.
Regarding `C#C[C@@]1(O)[C@@H](COC(Cc2ccccc2)(C(=O)O)C(=O)O)O[C@@H](n2cnc3c(N4CCCC4)nc(Cl)nc32)[C@@H]1O` [Example 90, 2-benzyl-2-(((2R,3S,4R,5R)-5-(2-chloro-6-(pyrrolidin-1-yl)-9H-purin-9-yl)-3-ethynyl-3,4-dihydroxytetrahydrofuran-2-yl)methoxy)malonic acid], the half-maximal inhibitory concentration (IC50) stood at 0.9 nM.
Under `C#C[C@@]1(O)[C@@H](COC(Cc2cccc(C(F)(F)F)c2)(C(=O)O)C(=O)OCC)O[C@@H](n2cnc3c(N)nc(Cl)nc32)[C@@H]1O` (stereo partly drawn) [Example 49, 2-(((2R,3S,4R,5R)-5-(6-amino-2-chloro-9H-purin-9-yl)-3-ethynyl-3,4-dihydroxytetrahydrofuran-2-yl)methoxy)-3-ethoxy-3-oxo-2-(3-(trifluoromethyl)-benzyl)propanoic acid] stands 273 nM.
In the case of `C#C[C@@]1(O)[C@@H](COC(C(=O)NO)c2cscn2)O[C@@H](n2cnc3c(N)nc(Cl)nc32)[C@@H]1O` (single isomer, unassigned) [Example 185], the IC50 came out at 11700 nM.
Regarding `C#C[C@@]1(O)[C@@H](COC(C(=O)O)C(=O)O)O[C@@H](n2cnc3c(N)nc(Cl)nc32)[C@@H]1O` [Example 26, 2-(((2R,3S,4R,5R)-5-(6-amino-2-chloro-9H-purin-9-yl)-3-ethynyl-3,4-dihydroxytetrahydrofuran-2-yl)methoxy)malonic acid], the IC50 was determined as 58 nM.
`C#C[C@@]1(O)[C@@H](COC(C(=O)O)c2cscn2)O[C@@H](n2cnc3c(N)nc(Cl)nc32)[C@@H]1O` (stereo partly drawn) [Example 179, 2-(((2R,3S,4R,5R)-5-(6-amino-2-chloro-9H-purin-9-yl)-3-ethynyl-3,4-dihydroxytetrahydrofuran-2-yl)methoxy)-2-(thiazol-4-yl)acetic acid]: the IC50 was 320 nM.
With `C#C[C@@]1(O)[C@@H](CO[C@](Cc2ccccc2)(C(=O)O)c2nnn[nH]2)O[C@@H](n2cnc3c(N)nc(Cl)nc32)[C@@H]1O` [Example 191, (S)-2-(((2R,3S,4R,5R)-5-(6-amino-2-chloro-9H-purin-9-yl)-3-ethynyl-3,4-dihydroxytetrahydrofuran-2-yl)methoxy)-3-phenyl-2-(1H-tetrazol-5-yl)propanoic acid], the IC50 was 7 nM.
Turning to `C#C[C@@]1(O)[C@@H](COC(C(=O)OC)P(=O)(O)O)O[C@@H](n2cnc3c(N)nc(Cl)nc32)[C@@H]1O` (stereo partly drawn) [Example 123, (1-(((2R,3S,4R,5R)-5-(6-amino-2-chloro-9H-purin-9-yl)-3-ethynyl-3,4-dihydroxytetrahydrofuran-2-yl)methoxy)-2-methoxy-2-oxoethyl)phosphonic acid], the IC50 stood at 71 nM.
For `C#C[C@@]1(O)[C@@H](COC(C(=O)O)S(C)(=O)=O)O[C@@H](n2cnc3c(NC4CCCC4)nc(Cl)nc32)[C@@H]1O` (stereo partly drawn) [Example 120, 2-(((2R,3S,4R,5R)-5-(2-chloro-6-(cyclopentylamino)-9H-purin-9-yl)-3-ethynyl-3,4-dihydroxytetrahydrofuran-2-yl)methoxy)-2-(methylsulfonyl)acetic acid] the value was 4630 nM.
Under `C[C@@]1(O)[C@@H](CO[C@](Cc2ccc(-c3ccccc3)cc2)(C(=O)O)c2cscn2)O[C@@H](n2cnc3c(N)nc(Cl)nc32)[C@@H]1O` (single isomer, unassigned) [Example 198] stands 2270 nM.
For `C#C[C@@]1(O)[C@@H](COC(Cc2cccc(Cl)c2)(C(=O)O)C(=O)O)O[C@@H](n2cnc3c(N)nc(Cl)nc32)[C@@H]1O` [Example 51, 2-(((2R,3S,4R,5R)-5-(6-amino-2-chloro-9H-purin-9-yl)-3-ethynyl-3,4-dihydroxytetrahydrofuran-2-yl)methoxy)-2-(3-chlorobenzyl)malonic acid] the value was 3 nM; for `C[C@@]1(O)[C@@H](COC(Cc2ccc(-c3ccccc3C(=O)O)cc2)(C(=O)O)c2nnn[nH]2)O[C@@H](n2cnc3c(N)nc(Cl)nc32)[C@@H]1O` (stereo partly drawn) [Example 201, 4′-(2-(((2R,3S,4R,5R)-5-(6-amino-2-chloro-9H-purin-9-yl)-3,4-dihydroxy-3-methyltetrahydrofuran-2-yl)methoxy)-2-carboxy-2-(1H-tetrazol-5-yl)ethyl)-[1,1′-biphenyl]-2-carboxylic acid], 204 nM.
As for `C#C[C@@]1(O)[C@@H](CO[C@H](C(=O)O)c2csc(-c3ccccc3)n2)O[C@@H](n2cnc3c(N)nc(Cl)nc32)[C@@H]1O` (single isomer, unassigned) [Example 193], the IC50 came out at 263 nM.
Take `C#C[C@@]1(O)[C@@H](COCP(=O)(O)O)O[C@@H](n2cnc3c(NCc4ccccc4)nc(Cl)nc32)[C@@H]1O` [Example 204, ((((2R,3S,4R,5R)-5-(6-(benzylamino)-2-chloro-9H-purin-9-yl)-3-ethynyl-3,4-dihydroxytetrahydrofuran-2-yl)methoxy)methyl)phosphonic acid]: the IC50 is 100 nM.
As to `C#C[C@@]1(O)[C@@H](COC(Cc2cccc(C(F)(F)F)c2)(C(=O)O)C(=O)O)O[C@@H](n2cnc3c(N)nc(Cl)nc32)[C@@H]1O` [Example 50, 2-(((2R,3S,4R,5R)-5-(6-amino-2-chloro-9H-purin-9-yl)-3-ethynyl-3,4-dihydroxytetrahydrofuran-2-yl)methoxy)-2-(3-(trifluoromethyl)benzyl)malonic acid], the IC50 came to 3 nM.
For `C#C[C@@]1(O)[C@@H](COC(C(=O)OCC)P(=O)(O)O)O[C@@H](n2cnc3c(N4CCOCC4)nc(Cl)nc32)[C@@H]1O` (stereo partly drawn) [Example 124, (1-(((2R,3S,4R,5R)-5-(2-chloro-6-morpholino-9H-purin-9-yl)-3-ethynyl-3,4-dihydroxytetrahydrofuran-2-yl)methoxy)-2-ethoxy-2-oxoethyl)phosphonic acid] the value was 27 nM; for `C[C@@]1(O)[C@@H](CO[C@@](Cc2ccc(-c3ccccc3)cc2)(C(=O)O)c2cscn2)O[C@@H](n2cnc3c(N)nc(Cl)nc32)[C@@H]1O` (single isomer, unassigned) [Example 199], 5760 nM.
